Data published in US20060069132A1, “Azolecarboxamide herbicides” (priority 2004, published 2006).

Legend:
barnyardgrass [1] = assay: Test B pre-/postemergence herbicide test; format: in vivo, Echinochloa crus-galli; conditions: for Plant response rating (0 to 100 scale), Barnyardgrass: 0 is no effect, 100 is complete control, preemergence; for Barnyardgrass plant response rating: scale 0 (no effect) to 100 (complete control)
Outline: (§1)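 Flooded paddy rice and barnyardgrass were treated at the 2-leaf stage; upland plantings received compound either on sown seed or on 1- to 4-leaf seedlings. All were kept 13–15 days in a greenhouse and scored visually, 0–100, relative to untreated plants.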

Surinam grass = assay: Test B pre-/postemergence herbicide test; format: in vivo, Urochloa decumbens; conditions: for Plant response rating (0 to 100 scale), Surinam Grass: 0 is no effect, 100 is complete control, preemergence
Outline: (§2)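 Herbicidal effect was judged by eye on a 0–100 scale after plants stood 13 to 15 days in the greenhouse following pre- or postemergence treatment with surfactant-containing formulations.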

cocklebur = assay: Test B pre-/postemergence herbicide test; format: in vivo, Xanthium strumarium; conditions: for Plant response rating (0 to 100 scale), Cocklebur: 0 is no effect, 100 is complete control, preemergence
Outline: as §1

corn = assay: Test B pre-/postemergence herbicide test; format: in vivo, Zea mays; conditions: for Plant response rating (0 to 100 scale), Corn: 0 is no effect, 100 is complete control, preemergence
Outline: as §2

large crabgrass = assay: Test B pre-/postemergence herbicide test; format: in vivo, Digitaria sanguinalis; conditions: for Plant response rating (0 to 100 scale), Crabgrass, Large: 0 is no effect, 100 is complete control, preemergence
Outline: as §2

giant foxtail = assay: Test B pre-/postemergence herbicide test; format: in vivo, Setaria faberi; conditions: for Plant response rating (0 to 100 scale), Foxtail, Giant: 0 is no effect, 100 is complete control, preemergence
Outline: as §2

lambsquarters = assay: Test B pre-/postemergence herbicide test; format: in vivo, Chenopodium album; conditions: for Plant response rating (0 to 100 scale), Lambsquarters: 0 is no effect, 100 is complete control, preemergence
Outline: as §2

morningglory = assay: Test B pre-/postemergence herbicide test; format: in vivo, Ipomoea coccinea; conditions: for Plant response rating (0 to 100 scale), Morningglory: 0 is no effect, 100 is complete control, preemergence
Outline: as §1

pigweed = assay: Test B pre-/postemergence herbicide test; format: in vivo, Amaranthus retroflexus; conditions: for Plant response rating (0 to 100 scale), Pigweed: 0 is no effect, 100 is complete control, preemergence
Outline: as §2

velvetleaf = assay: Test B pre-/postemergence herbicide test; format: in vivo, Abutilon theophrasti; conditions: for Plant response rating (0 to 100 scale), Velvetleaf: 0 is no effect, 100 is complete control, preemergence
Outline: as §2

blackgrass = assay: Test B postemergence herbicide test; format: in vivo, Alopecurus myosuroides
Outline: (§3)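 After treating 2-leaf paddy plants or 2–18 cm postemergence plants (1 to 4 leaves) with formulated chemical, researchers kept them in a greenhouse for 13–15 days. Effects were judged visually versus controls: 0 indicates none, 100 total control.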

wheat = assay: Test B postemergence herbicide test; format: in vivo, Triticum aestivum; parameters: key to Wheat plant response rating: 0 = no effect, 100 = complete control
Outline: (§4)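 Visual ratings, 0 (no effect) to 100 (complete control), made versus controls after 13–15 d greenhouse. Paddy plants treated at 2-leaf stage; postemergence plants at 1- to 4-leaf stage, 2–18 cm tall.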

wild oat = assay: Test B postemergence herbicide test; format: in vivo, Avena fatua
Outline: as §4

rice [2] = assay: Test B flooded paddy test; format: in vivo, Oryza sativa; conditions: 1000 g ai/ha, scale 0 to 100 (0 no effect, 100 complete control)
Outline: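 Treated at 2-leaf (paddy) or 1–4-leaf, 2–18 cm (postemergence); greenhouse 13–15 d; visual score vs control, 0 none to 100 complete control; dash = not tested.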

[3] = tested on: small flower umbrella sedge; assay: Test B flooded paddy test; format: in vivo, Cyperus difformis; conditions: 1000 g ai/ha, scale 0 to 100 (0 no effect, 100 complete control)
Outline: as §3

ducksalad [4] = assay: Test B flooded paddy test; format: in vivo, Heteranthera limosa; conditions: 1000 g ai/ha, scale 0 to 100 (0 no effect, 100 complete control)
Outline: as §3

barnyardgrass [5] = assay: Test B flooded paddy test; format: in vivo, Echinochloa crus-galli; conditions: 1000 g ai/ha, scale 0 to 100 (0 no effect, 100 complete control)
Outline: as §3

rice [6] = assay: Test C flooded paddy test; format: in vivo, Oryza sativa; conditions: for Plant response rating, Rice: 500 g ai/ha, visual rating after 12 to 14 days
Outline: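 Postemergence sprays applied to plants 2 to 18 cm tall (1- to 4-leaf stage); paddy species grown to 2-leaf stage under flooding. After 12 to 14 days in greenhouse, visual rating versus untreated controls on 0–100 scale (0 no effect, 100 complete control).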

[7] = tested on: smallflower umbrella sedge; assay: Test C flooded paddy test; format: in vivo, Cyperus difformis; conditions: for Plant response rating, Sedge, Umbrella: 500 g ai/ha, visual rating after 12 to 14 days
ducksalad [8] = assay: Test C flooded paddy test; format: in vivo, Heteranthera limosa; conditions: for Plant response rating, Ducksalad: 500 g ai/ha, visual rating after 12 to 14 days
barnyardgrass [9] = assay: Test C flooded paddy test; format: in vivo, Echinochloa crus-galli; conditions: for Plant response rating, Barnyardgrass: 500 g ai/ha, visual rating after 12 to 14 days
Outline: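 Injury scored visually against controls on a 0 (no effect) to 100 (complete control) scale, 12 to 14 days after treatment in greenhouse. Flooded paddy plants treated at 2-leaf stage; postemergence plants at 1- to 4-leaf stage, 2 to 18 cm tall.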

[10] = 125 g ai/ha, visual rating, scale 0 (no effect) to 100 (complete control), postemergence
[11] = Postemergence, 500 g ai/ha, scale 0 (no effect) to 100 (complete control)
[12] = 500 g ai/ha, scale 0 to 100, 0 no effect, 100 complete control, preemergence
[13] = 125 g ai/ha, scale 0 to 100 (0 no effect, 100 complete control)
[14] = 250 g ai/ha, scale of 0 to 100, 0 is no effect, 100 is complete control
[15] = scale 0 to 100 (0 no effect, 100 complete control)
[16] = 62 g ai/ha, scale 0 to 100 (0 no effect, 100 complete control)
[17] = postemergence, 125 g ai/ha, scale 0 to 100

Cc1nn(C(C)C)nc1C(=O)Nc1cccc(C(=O)N2CC=CC2)c1 [Compound 406]
Plant response rating (0 to 100 scale), Barnyardgrass (barnyardgrass [1]; 125 g ai/ha): 40 | Barnyardgrass plant response rating (barnyardgrass [1]; 125 g ai/ha, visual rating, postemergence): 10 | Barnyardgrass plant response rating (barnyardgrass [1]; Postemergence, 500 g ai/ha): 20 | Plant response rating (0 to 100 scale), Surinam Grass (Surinam grass; 125 g ai/ha): 20 | Surinam Grass plant response rating (Surinam grass; [10]): 0 | Surinam Grass plant response rating (Surinam grass; [11]): 20 | Plant response rating (0 to 100 scale), Cocklebur (cocklebur; 125 g ai/ha): 0 | Cocklebur plant response rating (cocklebur; [10]): 20 | Cocklebur plant response rating (cocklebur; [11]): 50 | Plant response rating (0 to 100 scale), Corn (corn; 125 g ai/ha): 0 | Corn plant response rating (corn; [10]): 0 | Corn plant response rating (corn; [11]): 10 | Plant response rating (0 to 100 scale), Crabgrass, Large (large crabgrass; 125 g ai/ha): 90 | Crabgrass, Large plant response rating (large crabgrass; [10]): 10 | Crabgrass, Large plant response rating (large crabgrass; [11]): 20 | Plant response rating (0 to 100 scale), Foxtail, Giant (giant foxtail; 125 g ai/ha): 20 | Foxtail, Giant plant response rating (giant foxtail; [10]): 30 | Foxtail, Giant plant response rating (giant foxtail; [11]): 40 | Plant response rating (0 to 100 scale), Lambsquarters (lambsquarters; 125 g ai/ha): 90 | Lambsquarters plant response rating (lambsquarters; [10]): 50 | Lambsquarters plant response rating (lambsquarters; [11]): 60 | Plant response rating (0 to 100 scale), Morningglory (morningglory; 125 g ai/ha): 10 | Morningglory plant response rating (morningglory; [10]): 20 | Morningglory plant response rating (morningglory; [11]): 60 | Plant response rating (0 to 100 scale), Pigweed (pigweed; 125 g ai/ha): 50 | Pigweed plant response rating (pigweed; [10]): 40 | Pigweed plant response rating (pigweed; [11]): 50 | Plant response rating (0 to 100 scale), Velvetleaf (velvetleaf; 125 g ai/ha): 10 | Velvetleaf plant response rating (velvetleaf; [10]): 20 | Velvetleaf plant response rating (velvetleaf; [11]): 30 | Blackgrass plant response rating (blackgrass; [10]): 10 | Blackgrass plant response rating (blackgrass; [11]): 20 | Wheat plant response rating (wheat; [10]): 0 | Wheat plant response rating (wheat; [12]): 40 | Wheat plant response rating (wheat; [11]): 0 | Oat, Wild plant response rating (wild oat; [10]): 0 | Oat, Wild plant response rating (wild oat; [11]): 10 | Rice plant response rating (rice [2]): 60 | Sedge, Umbrella plant response rating [3]: 90 | Ducksalad plant response rating (ducksalad [4]): 90 | Barnyardgrass plant response rating (barnyardgrass [5]): 90 | Rice plant response rating (rice [6]; 62 g ai/ha, scale 0 to 100): 20 | Rice plant response rating (rice [6]; [13]): 35 | Rice plant response rating (rice [6]; [14]): 40 | Plant response rating, Rice (rice [6]; [15]): 45 | Sedge, Umbrella plant response rating ([7]; 62 g ai/ha, scale 0 to 100): 75 | Sedge, Umbrella plant response rating [7, 13]: 75 | Sedge, Umbrella plant response rating [7, 14]: 75 | Plant response rating, Sedge, Umbrella [7, 15]: 75 | Ducksalad plant response rating (ducksalad [8]; 62 g ai/ha, scale 0 to 100): 20 | Ducksalad plant response rating (ducksalad [8]; [13]): 20 | Ducksalad plant response rating (ducksalad [8]; [14]): 50 | Plant response rating, Ducksalad (ducksalad [8]; [15]): 75 | Barnyardgrass plant response rating (barnyardgrass [9]; [16]): 10 | Barnyardgrass plant response rating (barnyardgrass [9]; [13]): 25 | Barnyardgrass plant response rating (barnyardgrass [9]; [14]): 30 | Plant response rating, Barnyardgrass (barnyardgrass [9]; [15]): 40

CCc1nn(C(C)C)nc1C(=S)Nc1cccc(C(=S)N(C)C)c1 [Compound 410]
Plant response rating (0 to 100 scale), Barnyardgrass (barnyardgrass [1]; 125 g ai/ha): 100 | Barnyardgrass plant response rating (barnyardgrass [1]; Postemergence, 125 g ai/ha): 0 | Barnyardgrass plant response rating (barnyardgrass [1]; Postemergence, 500 g ai/ha): 0 | Plant response rating (0 to 100 scale), Surinam Grass (Surinam grass; 125 g ai/ha): 60 | Surinam Grass plant response rating (Surinam grass; [11]): 0 | Surinam Grass plant response rating (Surinam grass; [17]): 0 | Plant response rating (0 to 100 scale), Cocklebur (cocklebur; 125 g ai/ha): 0 | Cocklebur plant response rating (cocklebur; [11]): 10 | Cocklebur plant response rating (cocklebur; [17]): 0 | Plant response rating (0 to 100 scale), Corn (corn; 125 g ai/ha): 0 | Corn plant response rating (corn; [11]): 10 | Corn plant response rating (corn; [17]): 0 | Plant response rating (0 to 100 scale), Crabgrass, Large (large crabgrass; 125 g ai/ha): 90 | Crabgrass, Large plant response rating (large crabgrass; [11]): 20 | Crabgrass, Large plant response rating (large crabgrass; [17]): 0 | Plant response rating (0 to 100 scale), Foxtail, Giant (giant foxtail; 125 g ai/ha): 30 | Foxtail, Giant plant response rating (giant foxtail; [11]): 20 | Foxtail, Giant plant response rating (giant foxtail; [17]): 10 | Plant response rating (0 to 100 scale), Lambsquarters (lambsquarters; 125 g ai/ha): 100 | Lambsquarters plant response rating (lambsquarters; [11]): 70 | Lambsquarters plant response rating (lambsquarters; [17]): 20 | Plant response rating (0 to 100 scale), Morningglory (morningglory; 125 g ai/ha): 30 | Morningglory plant response rating (morningglory; [11]): 80 | Morningglory plant response rating (morningglory; [17]): 0 | Plant response rating (0 to 100 scale), Pigweed (pigweed; 125 g ai/ha): 60 | Pigweed plant response rating (pigweed; [11]): 70 | Pigweed plant response rating (pigweed; [17]): 0 | Plant response rating (0 to 100 scale), Velvetleaf (velvetleaf; 125 g ai/ha): 30 | Velvetleaf plant response rating (velvetleaf; [11]): 0 | Velvetleaf plant response rating (velvetleaf; [17]): 0 | Blackgrass plant response rating (blackgrass; [11]): 30 | Blackgrass plant response rating (blackgrass; [17]): 10 | Wheat plant response rating (wheat; [12]): 90 | Wheat plant response rating (wheat; [11]): 10 | Wheat plant response rating (wheat; [17]): 0 | Oat, Wild plant response rating (wild oat; [11]): 10 | Oat, Wild plant response rating (wild oat; [17]): 0 | Rice plant response rating (rice [2]): 60 | Sedge, Umbrella plant response rating [3]: 80 | Ducksalad plant response rating (ducksalad [4]): 80 | Barnyardgrass plant response rating (barnyardgrass [5]): 80 | Rice plant response rating (rice [6]; 62 g ai/ha, scale 0 to 100): 20 | Rice plant response rating (rice [6]; [13]): 40 | Rice plant response rating (rice [6]; [14]): 60 | Plant response rating, Rice (rice [6]; [15]): 60 | Sedge, Umbrella plant response rating ([7]; 62 g ai/ha, scale 0 to 100): 70 | Sedge, Umbrella plant response rating [7, 13]: 75 | Sedge, Umbrella plant response rating [7, 14]: 80 | Plant response rating, Sedge, Umbrella [7, 15]: 85 | Ducksalad plant response rating (ducksalad [8]; 62 g ai/ha, scale 0 to 100): 30 | Ducksalad plant response rating (ducksalad [8]; [13]): 40 | Ducksalad plant response rating (ducksalad [8]; [14]): 60 | Plant response rating, Ducksalad (ducksalad [8]; [15]): 60 | Barnyardgrass plant response rating (barnyardgrass [9]; [16]): 0 | Barnyardgrass plant response rating (barnyardgrass [9]; [13]): 20 | Barnyardgrass plant response rating (barnyardgrass [9]; [14]): 60 | Plant response rating, Barnyardgrass (barnyardgrass [9]; [15]): 65
